We go through one compound from ChEMBL document CHEMBL6092154, “Design, synthesis, and evaluation of a novel TRAIL-activated HDAC6 inhibitor for the treatment of pulmonary fibrosis” (Bioorg Med Chem, 2024).

Calls of active or inactive are those of the source. The calls are words filed in the database; no cut-off is given here.

The test system of assay [1] is Mus musculus. Put plainly: Anti-pulmonary fibrosis activity in bleomycin-induced idiopathic pulmonary fibrosis C57BL/6J mouse model assessed as decrease in weight loss at 50 mg/kg, ig administered daily via gavage and measured for 14 days. The format is functional, organism-based. Particulars: time 14.0 day.
The target of assay [2] is T1, Protein deacetylase HDAC6 (Homo sapiens) (UniProt Q9UBN7).
T1 sequence (whole entry): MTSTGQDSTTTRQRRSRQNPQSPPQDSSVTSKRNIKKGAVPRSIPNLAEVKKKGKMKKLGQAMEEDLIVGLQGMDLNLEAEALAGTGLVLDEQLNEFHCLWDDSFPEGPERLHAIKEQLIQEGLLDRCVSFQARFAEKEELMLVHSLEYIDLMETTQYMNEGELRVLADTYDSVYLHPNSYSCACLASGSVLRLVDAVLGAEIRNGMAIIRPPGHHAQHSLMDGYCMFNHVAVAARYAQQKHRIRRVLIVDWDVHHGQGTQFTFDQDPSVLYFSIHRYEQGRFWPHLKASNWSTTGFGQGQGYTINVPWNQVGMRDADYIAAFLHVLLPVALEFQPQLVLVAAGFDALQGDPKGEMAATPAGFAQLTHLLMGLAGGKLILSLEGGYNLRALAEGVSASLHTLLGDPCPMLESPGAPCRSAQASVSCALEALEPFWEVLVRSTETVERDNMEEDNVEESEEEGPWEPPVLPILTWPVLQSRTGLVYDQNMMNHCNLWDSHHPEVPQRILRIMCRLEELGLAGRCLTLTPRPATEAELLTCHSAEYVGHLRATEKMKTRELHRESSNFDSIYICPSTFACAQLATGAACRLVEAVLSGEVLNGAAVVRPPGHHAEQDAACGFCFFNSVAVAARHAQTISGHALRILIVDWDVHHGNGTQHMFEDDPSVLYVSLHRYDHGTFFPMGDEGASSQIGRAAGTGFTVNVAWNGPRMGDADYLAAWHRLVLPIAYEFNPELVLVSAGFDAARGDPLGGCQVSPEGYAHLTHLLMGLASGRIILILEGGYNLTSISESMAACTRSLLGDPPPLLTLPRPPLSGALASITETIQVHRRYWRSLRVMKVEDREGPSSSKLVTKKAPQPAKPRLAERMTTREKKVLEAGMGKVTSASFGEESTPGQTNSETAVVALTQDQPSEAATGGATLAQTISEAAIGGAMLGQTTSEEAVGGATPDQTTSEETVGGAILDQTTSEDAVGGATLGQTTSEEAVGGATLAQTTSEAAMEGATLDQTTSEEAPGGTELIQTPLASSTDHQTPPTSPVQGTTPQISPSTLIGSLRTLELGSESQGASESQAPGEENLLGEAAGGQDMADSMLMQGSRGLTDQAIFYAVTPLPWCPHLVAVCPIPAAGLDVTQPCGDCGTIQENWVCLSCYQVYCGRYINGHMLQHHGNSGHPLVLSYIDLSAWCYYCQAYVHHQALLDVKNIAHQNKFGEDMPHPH
As to the kind of experiment: Inhibition of HDAC6 in human RPMI-8226 cells assessed as increase in acetylated alpha-tubulin level at 0.25 to 1 uM incubated for 24 hrs by western blot analysis. The format is cell-based. Particulars: dose 0.25-1 µM. (In general: A western blot detects proteins with antibodies after separation by electrophoresis.)

Assay [3] addresses T1, Protein deacetylase HDAC6 (Homo sapiens). As to the kind of experiment: Inhibition of HDAC6 in human RPMI-8226 cells assessed as increase in acetylated histone H3 level at 0.25 to 1 uM incubated for 24 hrs by western blot analysis. Particulars: dose 0.25-1 µM. The format is cell-based.

Turning to `O=C(NO)c1ccc(CN2C(=O)C3=C(CCN(Cc4cccc(Cl)c4)C3)N3CCN=C23)cc1`, the result in assay [1] was Active. The inhibition entry in assay [2] is “Active”. Moreover, the inhibition result in assay [3] is “Active; Less Affected”.
